Results as given in patent US20110183336A1, “Method to Predict Responsiveness of Breast Cancer to Polyamine-Type Chemotherapy” (THE REGENTS OF THE UNIVERSITY OF CALIFORNIA, priority 2007, published 2011).
pEC50: −log10 of the molar value.

Assays:
Assay type in all cases: cell-based
[1] = test system: human brain cancer cell line U251MG-NCI; assay: Colony formation (plating efficiency) standard protocol
Procedure: (§1) Cell lines and media: Human breast cancer cell line MCF7 was grown in Richter's Improved Modified Eagle's Medium supplemented with 10% fetal bovine serum (FBS) and 2.2 g/L sodium bicarbonate. Human brain cancer cell line U251MG-NCI was grown in Dulbecco's Modified Eagle's Medium supplemented with 10% FBS. Human lung cancer cell line A549 was grown in Ham's F-12K medium (Fisher Scientific, Itasca, Ill.), supplemented with 10% FBS and 2 mM L-glutamine. Human colon cancer cell line HT29 was cultured in McCoy's 5A medium (Gibco, BRL, Gaithersburg, Md.), supplemented with 10% FBS. Human prostate cancer cell line PC3 was grown in Dulbecco's Modified Eagles Medium supplemented with 5% FBS. The A549 and MCF7 cell lines were cultured in 100 units/mL penicillin and 100 μg/mL streptomycin. HT29 and U251MG cell lines were grown in 50 μg/mL gentamycin. PC3 cell lines were maintained in 1% antibiotic-antimycotic solution (Sigma, St. Louis, Mo.). The cell cultures were maintained at 37° C. in 5% CO2/95% humidified air. All cell cultures are available from the American Type Culture Collection, Rockville, Md.
(§2) A standardized protocol was used to evaluate these test cultures:
(§3) Day 1: Ten standard culture flasks for each drug to be tested were plated with 5×10^5 cells of a given type in 5 mL of media and allowed to incubate for 16-24 hours at 37° C.
(§4) Day 2: Fresh stocks of the compounds to be evaluated are prepared. For each drug, two of the ten culture flasks prepared on Day 1 are used as controls. The control flasks are treated with solvent only. Four flasks for each compound are then treated with serially-diluted concentrations of the compound. The remaining flasks are left untouched. The cells are incubated for 4 hours at 37° C.
(§5) After 4 hours the control flasks are counted (2 counts for each flask) and the cells per mL calculated based on the average of the control counts. The cells are then re-plated into six 60 mm dishes for each flask from dilutions based on the cells/mL of the control. (In the various test runs, cell concentrations ranged from approximately 50 to approximately 800 cells per mL.)
(§6) Day 15-20: The cells are monitored for colony formation. When visible, the cells are stained with 0.5% crystal violet (in 95% EtOH) and counted. The plating efficiency for each dish is then calculated. The plating efficiencies of the six dishes for each flask are averaged and the standard deviation is calculated. The fraction of cell survival at each concentration is determined based on the controls.

U251MG NCl = assay: MTT assay, percent cell survival; settings: Homo sapiens, U-251, 144 h, six days after drug treatment, read-out: ID50(μM) U251MG NCl
Procedure: as §1
(§7) Here, a conventional MTT assay was used to evaluate percent cell survival. Exponentially growing monolayer cells were plated in 96-well plates at a density of 500 cells per well and allowed to grow for 24 hours. Serial dilutions of the drugs were added to the wells. Six days after drug treatment, 25 μl of MTT solution (5 mg/ml) was added to each well and incubated for 4 hours at 37° C. Then 100 μl of lysis buffer (20% sodium dodecyl sulfate, 50% DMF, and 0.8% acetic acid, pH 4.7) was added to each well and incubated for an additional 22 hours. A microplate reader (“EMAX”-brand, Molecular Devices, Sunnyvale, Calif.) set at 570 nm was used to determine the optical density of the cultures. Results are expressed as a ratio of the optical density in drug-treated wells to the optical density in wells treated with vehicle only.
(§8) The ID50 is the drug concentration that killed 50% of the cultured cells.

MCF7 = assay: MTT assay, percent cell survival; settings: Homo sapiens, MCF7, 144 h, six days after drug treatment, read-out: ID50(μM) MCF7
Procedure: as §1, §7, §8

PC-3 = assay: MTT assay, percent cell survival; settings: Homo sapiens, PC-3, 144 h, PC-3, MTT, six days after drug treatment; read-out: ID50(μM) PC-3
Procedure: as §1, §7, §8

HT-29 = assay: MTT assay, percent cell survival; settings: Homo sapiens, HT-29, 144 h, HT-29, MTT, six days after drug treatment; read-out: ID50(μM) HT-29
Procedure: as §1, §7, §8

[2] = test system: Human breast cancer cell line MCF7; assay: Colony formation (plating efficiency) standard protocol; settings: MCF7, MCF7, 4 hours exposure, colony formation day 15-20, read-out: ED50 (the source's name)
Procedure: as §1, §2, §3, §4, §5, §6

A549 = assay: MTT assay, percent cell survival; settings: Homo sapiens, A549, 144 h, six days after drug treatment, read-out: ID50(μM) A549
Procedure: Human brain cancer cell line U251MG-NCI was grown in Dulbecco's Modified Eagle's Medium supplemented with 10% FBS. […] Human prostate cancer cell line PC3 was grown in Dulbecco's Modified Eagles Medium supplemented with 5% FBS. […] The cell cultures were maintained at 37° C. in 5% CO2/95% humidified air.
as §7, §8

Structure (SMILES)	IC50 (U251MG NCl) [µM]	IC50 (MCF7) [µM]	IC50 (HT-29) [µM]	pEC50 [2]	further results
CCNCCCNC1CC1NCCCNCC (stereo not drawn) [SL-11027]	–	–	–	–	inhibition of cell growth ([1]; 10 μM dose): marked inhibition of cell growth
CCNCCCNC1CCC1NCCCNCC (stereo not drawn) [SL-11034]	–	–	–	–	inhibition of cell growth ([1]; 40 μM dose): marked inhibition of cell growth
CCNCCCNCC1CC1CNCCCNCC (stereo not drawn) [SL-11037]	0.1	> 31.2	1.6	–	IC50 (PC-3): 7.4 µM
CCNCCCNCC1CC1CNCCCNCC (stereo not drawn) [SL-11038]	–	–	–	5.87	–
CCNCCCNCC1CCC1CNCCCNCC (stereo not drawn) [SL-11043]	0.1	25.5	1.5	5.79	–
CCNCCCNCC1CCC1CNCCCNCC (stereo not drawn) [SL-11044]	–	–	–	–	IC50 (A549): 0.3 µM
